Measurements: ChEMBL document CHEMBL5032522, “N-2-(phenylamino) benzamide derivatives as novel anti-glioblastoma agents: Synthesis and biological evaluation” (Eur J Med Chem, 2021)
Active and inactive are the calls of the source. The calls are words filed in the database; no cut-off is given here.

Legend:
[1] = tested on: U-87 MG; assay: Antiproliferative activity against human U-87 MG cells assessed as inhibition of cell growth measured after 72 hrs by CCK-8 assay; type: functional, cell-based, U-87MG ATCC
[2] = tested on: U-251; assay: Antiproliferative activity against human U-251 cells assessed as inhibition of cell growth measured after 72 hrs by CCK-8 assay; type: functional, cell-based; details: U-251, 72 h
[3] = tested on: C6; assay: Antiproliferative activity against rat C6 cells assessed as inhibition of cell growth measured after 72 hrs by CCK-8 assay; type: functional, cell-based; details: C6, 72 h
[4] = target: T1, Prostaglandin G/H synthase 2 (Homo sapiens, UniProt P35354); assay: Inhibition of human recombinant COX-2 using arachidonic acid as substrate preincubated 10 mins followed by substrate addition and measured after 2 mins by ELISA
T1 sequence (P35354 whole entry): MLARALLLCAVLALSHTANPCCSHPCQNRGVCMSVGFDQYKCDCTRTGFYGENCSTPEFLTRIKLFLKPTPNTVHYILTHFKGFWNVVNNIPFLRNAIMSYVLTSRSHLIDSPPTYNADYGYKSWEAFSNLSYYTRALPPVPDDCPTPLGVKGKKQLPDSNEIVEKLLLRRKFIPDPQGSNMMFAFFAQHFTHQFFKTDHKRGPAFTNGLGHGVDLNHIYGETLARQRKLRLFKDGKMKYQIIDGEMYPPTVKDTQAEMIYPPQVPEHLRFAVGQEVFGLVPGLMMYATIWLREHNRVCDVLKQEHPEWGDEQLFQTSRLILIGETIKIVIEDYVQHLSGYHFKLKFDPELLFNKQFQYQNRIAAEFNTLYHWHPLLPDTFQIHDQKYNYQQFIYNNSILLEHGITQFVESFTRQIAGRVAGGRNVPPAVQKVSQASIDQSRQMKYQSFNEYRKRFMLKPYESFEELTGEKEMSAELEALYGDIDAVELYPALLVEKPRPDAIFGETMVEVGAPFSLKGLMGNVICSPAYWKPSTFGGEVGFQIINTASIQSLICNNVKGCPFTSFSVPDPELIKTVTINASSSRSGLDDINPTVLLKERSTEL

[5] = target: T2, DNA topoisomerase 1 (Homo sapiens, UniProt P11387); assay: Inhibition of human topoisomerase I using DNA pBR322 as substrate assessed as DNA relaxation incubated for 45 mins by ethidium bromide staining based agarose gel electrophoresis
T2 sequence (P11387 whole entry): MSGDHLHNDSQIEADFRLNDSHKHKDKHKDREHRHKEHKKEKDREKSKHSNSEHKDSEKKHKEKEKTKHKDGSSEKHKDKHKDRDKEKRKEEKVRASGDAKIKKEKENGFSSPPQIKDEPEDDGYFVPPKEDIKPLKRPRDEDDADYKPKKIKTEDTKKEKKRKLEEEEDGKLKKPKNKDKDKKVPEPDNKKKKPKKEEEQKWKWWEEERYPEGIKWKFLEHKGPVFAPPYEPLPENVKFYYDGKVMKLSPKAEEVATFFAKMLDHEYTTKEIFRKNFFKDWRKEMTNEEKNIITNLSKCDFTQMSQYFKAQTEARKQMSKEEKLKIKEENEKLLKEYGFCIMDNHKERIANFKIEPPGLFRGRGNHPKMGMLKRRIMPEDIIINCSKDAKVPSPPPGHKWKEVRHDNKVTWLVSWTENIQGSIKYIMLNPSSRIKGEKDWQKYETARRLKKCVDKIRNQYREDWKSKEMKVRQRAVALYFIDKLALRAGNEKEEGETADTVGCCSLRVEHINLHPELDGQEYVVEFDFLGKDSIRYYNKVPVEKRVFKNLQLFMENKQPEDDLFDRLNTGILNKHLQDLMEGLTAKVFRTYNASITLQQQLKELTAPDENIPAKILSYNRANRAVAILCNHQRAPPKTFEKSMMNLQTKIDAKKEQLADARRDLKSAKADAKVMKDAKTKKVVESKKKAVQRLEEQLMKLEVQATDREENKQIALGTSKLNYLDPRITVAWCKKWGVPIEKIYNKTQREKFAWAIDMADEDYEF

[6] = target: T3, DNA topoisomerase 1 (Homo sapiens) (UniProt P11387); assay: Inhibition of human topoisomerase I using DNA pBR322 as substrate assessed as DNA intercalation at 100 uM incubated for 30 mins by ethidium bromide staining based agarose gel electrophoresis method
T3 sequence (whole entry): T2 sequence (P11387 whole entry)

[7] = tested on: U-251; assay: Inhibition of cell invasion in human U-251 cells incubated for 24 hrs by crystal violet staining based light microscopic analysis; type: functional
[8] = tested on: U-87 MG; assay: Inhibition of cell invasion in human U-87 MG cells incubated for 24 hrs by crystal violet staining based light microscopic analysis; type: functional; details: U-87MG ATCC
[9] = tested on: U-87 MG; assay: Inhibition of cell migration in human U-87 MG cells incubated for 24 hrs by crystal violet staining based light microscopic analysis; type: functional; details: U-87MG ATCC
[10] = tested on: U-251; assay: Inhibition of cell migration in human U-251 cells incubated for 24 hrs by crystal violet staining based light microscopic analysis; type: functional
[11] = target: T4, Prostaglandin G/H synthase 2 (Rattus norvegicus) (UniProt P35355); assay: In vivo inhibition of COX2 in ip dosed orthotopic Sprague-Dawley rat model inoculated with C6 cells assessed as reduction in PGE2 production by ELISA; type: functional, organism-based
T4 sequence (whole entry): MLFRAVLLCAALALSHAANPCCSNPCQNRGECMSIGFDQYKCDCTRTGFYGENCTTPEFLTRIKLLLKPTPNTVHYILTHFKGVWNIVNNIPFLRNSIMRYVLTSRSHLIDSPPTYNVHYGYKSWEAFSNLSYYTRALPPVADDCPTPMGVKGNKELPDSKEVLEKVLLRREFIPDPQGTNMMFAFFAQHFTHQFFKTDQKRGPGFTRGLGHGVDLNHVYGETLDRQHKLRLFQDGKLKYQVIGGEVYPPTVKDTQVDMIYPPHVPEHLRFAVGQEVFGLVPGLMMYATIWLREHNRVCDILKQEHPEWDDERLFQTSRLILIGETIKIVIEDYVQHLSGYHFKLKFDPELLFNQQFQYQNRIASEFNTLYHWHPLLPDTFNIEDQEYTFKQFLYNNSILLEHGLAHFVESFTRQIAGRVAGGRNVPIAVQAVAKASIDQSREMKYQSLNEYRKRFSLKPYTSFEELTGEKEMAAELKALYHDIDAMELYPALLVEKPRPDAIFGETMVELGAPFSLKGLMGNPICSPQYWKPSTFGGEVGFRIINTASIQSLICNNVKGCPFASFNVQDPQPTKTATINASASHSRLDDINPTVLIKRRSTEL

[12] = Toxicity in Sprague-Dawley rat inoculated with C6 cells assessed as reduction in body weight at 50 mg/kg, ip bid administered for 14 days; type: organism-based; details: in vivo, 336 h, time 14 day

In the case of `COc1cc(NC(=O)c2ccccc2Nc2cccc(Cl)c2C)cc(OC)c1OC`, the IC50 [1] is reported as 54.5 µM, the IC50 [2] is reported as 178 µM and the IC50 [3] is reported as greater than 200 µM. For the same compound, the IC50 [4] was 117 µM and the IC50 [5] was 50.9 µM.
With `COc1ccc(NC(=O)c2ccccc2Nc2cccc(Cl)c2)cc1` the IC50 [1] was greater than 200 µM, the IC50 [2] was 165 µM and the IC50 [3] was greater than 200 µM. It also gave an IC50 [4] greater than 150 µM and an IC50 [5] of 85.7 µM.
`c1ccc(-c2cc(-c3ccccc3)c3ncccc3n2)cc1` showed an IC50 [1] greater than 200 µM, an IC50 [2] greater than 200 µM and an IC50 [3] of 103 µM. For the same compound, the IC50 [4] was greater than 150 µM, the IC50 [5] was greater than 125 µM and the inhibition [6] was “inactive”. The inhibition [7] was “Dose-Dependent Effect”, the inhibition [8] was “Dose-Dependent Effect” and the inhibition [9] was “Dose-Dependent Effect”. The inhibition [10] was “Dose-Dependent Effect”.
With `COc1cc(NC(=O)c2ccccc2Nc2cccc(C(F)(F)F)c2)cc(OC)c1OC` the IC50 [1] was 52.1 µM, the IC50 [2] was 50.7 µM and the IC50 [3] was 75.2 µM. For the same compound, the IC50 [4] was greater than 150 µM and the IC50 [5] was greater than 125 µM.
In the case of `COc1cc(NS(C)(=O)=O)ccc1Nc1c2ccccc2nc2ccccc12`, the inhibition [6] is reported as “Active”.
Compound `COc1ccc(NC(=O)c2ccccc2Nc2cccc(C(F)(F)F)c2)cc1OC` has an IC50 [1] of 72.4 µM, an IC50 [2] of 86.2 µM and an IC50 [3] of 36.5 µM. The IC50 [4] was greater than 150 µM and the IC50 [5] was greater than 125 µM.
`COc1ccc(NC(=O)c2ccccc2Nc2cccc(Cl)c2C)c(OC)c1` showed an IC50 [1] greater than 200 µM, an IC50 [2] greater than 200 µM and an IC50 [3] greater than 200 µM. For the same compound, the IC50 [4] was 115 µM and the IC50 [5] was 70.9 µM.
Compound `COc1ccc(NC(=O)c2ccccc2Nc2ccccc2)cc1` has an IC50 [1] greater than 200 µM, an IC50 [2] of 184 µM and an IC50 [3] greater than 200 µM. The IC50 [4] was greater than 150 µM and the IC50 [5] was greater than 125 µM.
With `O=C(Nc1ccc2c(c1)OCO2)c1ccccc1Nc1cccc(C(F)(F)F)c1` the IC50 [1] was 26 µM, the IC50 [2] was 12.9 µM and the IC50 [3] was 15.6 µM. For the same compound, the IC50 [4] was 105 µM and the IC50 [5] was 105 µM.
For `COc1ccc(NC(=O)c2ccccc2Nc2cccc(C)c2C)cc1`, the IC50 [1] was 73.5 µM, the IC50 [2] was 138 µM and the IC50 [3] was greater than 200 µM. It also gave an IC50 [4] greater than 150 µM and an IC50 [5] greater than 125 µM.
Work on `COc1ccc(CNC(=O)c2ccccc2Nc2ccccc2)cc1` yielded an IC50 [1] greater than 200 µM, an IC50 [2] greater than 200 µM and an IC50 [3] greater than 200 µM. It also gave an IC50 [4] of 17.4 µM and an IC50 [5] greater than 125 µM.
Compound `COc1ccc(NC(=O)c2cccnc2Nc2cccc(Cl)c2C)cc1` has an IC50 [1] of 187 µM, an IC50 [2] greater than 200 µM and an IC50 [3] greater than 200 µM. It also gave an IC50 [4] greater than 150 µM and an IC50 [5] of 61.2 µM.
`Cc1c(Cl)cccc1Nc1ccccc1C(=O)O` [TOLFENAMIC ACID] gave an IC50 [1] greater than 100 µM, an IC50 [2] greater than 100 µM and an IC50 [3] greater than 100 µM.
With `COc1ccc(NC(=O)c2ccccc2Nc2cccc(C(F)(F)F)c2)cc1` the IC50 [1] was 142 µM, the IC50 [2] was greater than 200 µM and the IC50 [3] was 99.1 µM. For the same compound, the IC50 [4] was greater than 150 µM and the IC50 [5] was greater than 125 µM.
In the case of `COc1ccc(NC(=O)c2ccccc2NCc2ccccc2)cc1`, the IC50 [1] is reported as greater than 200 µM, the IC50 [2] is reported as greater than 200 µM and the IC50 [3] is reported as greater than 200 µM. It also gave an IC50 [4] greater than 150 µM and an IC50 [5] greater than 125 µM.
Compound `COc1ccc(CCCNC(=O)c2ccccc2Nc2ccccc2)cc1` has an IC50 [1] greater than 200 µM, an IC50 [2] greater than 200 µM and an IC50 [3] greater than 200 µM. The IC50 [4] was greater than 150 µM and the IC50 [5] was greater than 125 µM.
`CC[C@@]1(O)C(=O)OCc2c1cc1n(c2=O)Cc2cc3c(CN(C)C)c(O)ccc3nc2-1` [TOPOTECAN] gave an IC50 [1] of 0.06 µM, an IC50 [2] of 0.37 µM and an IC50 [3] of 5.8 µM.
Work on `COc1ccc(NC(=O)c2ccccc2Nc2cccc(C)c2C)cc1OC` yielded an IC50 [1] of 144 µM, an IC50 [2] greater than 200 µM and an IC50 [3] of 169 µM. The IC50 [4] was 48.1 µM and the IC50 [5] was 85.6 µM.
In the case of `Cn1nnc2c(C(N)=O)ncn2c1=O` [TEMOZOLOMIDE], the inhibition [11] is reported as “inactive” and the Activity [12] is reported as “Toxic”.
With `COc1ccc(CCNC(=O)c2ccccc2Nc2ccccc2)cc1` the IC50 [1] was greater than 200 µM, the IC50 [2] was greater than 200 µM and the IC50 [3] was 130 µM. It also gave an IC50 [4] greater than 150 µM and an IC50 [5] of 107 µM.
Compound `COc1ccc(NC(=O)c2cccnc2Nc2cccc(C(F)(F)F)c2)cc1` has an IC50 [1] greater than 200 µM, an IC50 [2] greater than 200 µM and an IC50 [3] greater than 200 µM. For the same compound, the IC50 [4] was greater than 150 µM and the IC50 [5] was 108 µM.
`COc1ccc(NC(=O)c2ccccc2Nc2cccc(Cl)c2C)cc1OC` showed an IC50 [1] of 99.8 µM, an IC50 [2] greater than 200 µM and an IC50 [3] of 44 µM. For the same compound, the IC50 [4] was 92.6 µM and the IC50 [5] was greater than 125 µM.
For `CSc1ccc(NC(=O)c2ccccc2Nc2cccc(C(F)(F)F)c2)cc1`, the IC50 [1] was greater than 200 µM, the IC50 [2] was 92.4 µM and the IC50 [3] was greater than 200 µM. The IC50 [4] was greater than 150 µM and the IC50 [5] was greater than 125 µM.
